Columns and labels:
[1] = molecular target: GDP-bound HRAS wild-type protein (Homo sapiens, UniProt P01112); test: Binding to HRAS by surface plasmon resonance (SPR), Single Cycle Kinetics; details: KD ratio HRAS/KRAS, SPR
[2] = molecular target: GDP-bound NRAS wild-type protein (Homo sapiens, UniProt P01111); test: Binding to NRAS by surface plasmon resonance (SPR), Single Cycle Kinetics; details: KD ratio NRAS/KRAS, SPR
Chain of GDP-bound NRAS wild-type protein (P01111 whole entry): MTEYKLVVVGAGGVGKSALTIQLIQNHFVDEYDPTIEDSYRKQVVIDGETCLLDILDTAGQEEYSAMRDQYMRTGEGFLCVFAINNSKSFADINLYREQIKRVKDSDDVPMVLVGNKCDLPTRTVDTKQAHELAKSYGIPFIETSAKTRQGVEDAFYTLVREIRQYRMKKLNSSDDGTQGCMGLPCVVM

Chain of GDP-bound HRAS wild-type protein (P01112 whole entry): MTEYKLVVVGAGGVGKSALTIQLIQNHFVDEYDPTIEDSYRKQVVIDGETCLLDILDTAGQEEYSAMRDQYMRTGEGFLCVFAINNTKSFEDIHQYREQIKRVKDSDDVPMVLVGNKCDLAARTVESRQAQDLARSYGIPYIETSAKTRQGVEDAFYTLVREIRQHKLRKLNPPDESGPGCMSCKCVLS

SMILES | HRAS/KRAS (ratio of KD value with respect to GDP-bound HRAS wild-type protein to KD value with respect to KRAS) [1] | NRAS/KRAS (ratio of KD value with respect to GDP-bound NRAS wild-type protein to KD value with respect to KRAS) [2]
CCO[C@@H]1C[C@H]2C(=O)NC3(CCC3)C(=O)N(C)[C@@H](C3CCCC3)C(=O)N(CCC3CCC3)[C@H](C(=O)N(C)C)CC(=O)N(C)[C@@H](CC)C(=O)N[C@@H]([C@@H](C)CC)C(=O)N(C)CC(=O)N(C)[C@H]3CCCCN(C3=O)[C@@H](Cc3ccc(C(F)(F)F)cc3)C(=O)N(C)CC(=O)N[C@@H](CCc3cc(F)c(C(F)(F)F)c(F)c3)C(=O)N2C1 [PP0645] | B (a compound having 3 or more and less than 10 is denoted as B) | B (a compound having 3 or more and less than 10 is denoted as B)
CCO[C@@H]1C[C@H]2C(=O)NC3(CCC3)C(=O)N(C)[C@@H](C3CCCC3)C(=O)N(CCC3CCCC3)[C@H](C(=O)N(C)C)CC(=O)N(C)[C@@H](CC)C(=O)N[C@@H]([C@@H](C)CC)C(=O)N(C)CC(=O)N(C)[C@H]3CCCCN(C3=O)[C@@H](Cc3ccc(C(F)(F)F)cc3)C(=O)N(C)CC(=O)N[C@@H](CCc3cc(F)c(C(F)(F)F)c(F)c3)C(=O)N2C1 [PP0646] | B (a compound having 3 or more and less than 10 is denoted as B) | C (A compound having a KD ratio of 0.1 or more and less than 3 is denoted as C)
CCO[C@@H]1C[C@H]2C(=O)NC3(CCC3)C(=O)N(C)[C@@H](C3CCCC3)C(=O)N(CCc3ccccc3)[C@H](C(=O)N(C)C)CC(=O)N(C)[C@@H](CC)C(=O)N[C@@H]([C@@H](C)CC)C(=O)N(C)CC(=O)N(C)[C@H]3CCCCN(C3=O)[C@@H](Cc3ccc(C(F)(F)F)cc3)C(=O)N(C)CC(=O)N[C@@H](CCc3cc(F)c(C(F)(F)F)c(F)c3)C(=O)N2C1 [PP0647] | B (a compound having 3 or more and less than 10 is denoted as B) | C (A compound having a KD ratio of 0.1 or more and less than 3 is denoted as C)
CCO[C@@H]1C[C@H]2C(=O)NC3(CCC3)C(=O)N(C)[C@@H](C3CCCC3)C(=O)N(CC)[C@H](C(=O)N3CCOCC3)CC(=O)N(C)[C@@H](CC(C)C)C(=O)N[C@@H]([C@@H](C)CC)C(=O)N(C)CC(=O)N(C)[C@H]3CCCCN(C3=O)[C@@H](Cc3ccc(C(F)(F)F)cc3)C(=O)N(C)CC(=O)N[C@@H](CCc3cc(F)c(C(F)(F)F)c(F)c3)C(=O)N2C1 [PP0648] | B (a compound having 3 or more and less than 10 is denoted as B) | B (a compound having 3 or more and less than 10 is denoted as B)
CCCN1C(=O)[C@H](C2CCCC2)N(C)C(=O)C2(CCC2)NC(=O)[C@@H]2C[C@@H](OCC)CN2C(=O)[C@H](CCc2cc(F)c(C(F)(F)F)c(F)c2)NC(=O)CN(C)C(=O)[C@H](Cc2ccc(C(F)(F)F)cc2)N2CCCC[C@@H](C2=O)N(C)C(=O)CN(C)C(=O)[C@H]([C@@H](C)CC)NC(=O)[C@H](CC(C)C)N(C)C(=O)C[C@H]1C(=O)N1CCOCC1 [PP0649] | B (a compound having 3 or more and less than 10 is denoted as B) | C (A compound having a KD ratio of 0.1 or more and less than 3 is denoted as C)
CCO[C@@H]1C[C@H]2C(=O)NC3(CCC3)C(=O)N(C)[C@@H](C3CCCC3)C(=O)N(CCC3CCC3)[C@H](C(=O)N3CCOCC3)CC(=O)N(C)[C@@H](CC(C)C)C(=O)N[C@@H]([C@@H](C)CC)C(=O)N(C)CC(=O)N(C)[C@H]3CCCCN(C3=O)[C@@H](Cc3ccc(C(F)(F)F)cc3)C(=O)N(C)CC(=O)N[C@@H](CCc3cc(F)c(C(F)(F)F)c(F)c3)C(=O)N2C1 [PP0650] | B (a compound having 3 or more and less than 10 is denoted as B) | C (A compound having a KD ratio of 0.1 or more and less than 3 is denoted as C)
CCO[C@@H]1C[C@H]2C(=O)NC3(CCC3)C(=O)N(C)[C@@H](C3CCCC3)C(=O)N(CCC3CCCC3)[C@H](C(=O)N3CCOCC3)CC(=O)N(C)[C@@H](CC(C)C)C(=O)N[C@@H]([C@@H](C)CC)C(=O)N(C)CC(=O)N(C)[C@H]3CCCCN(C3=O)[C@@H](Cc3ccc(C(F)(F)F)cc3)C(=O)N(C)CC(=O)N[C@@H](CCc3cc(F)c(C(F)(F)F)c(F)c3)C(=O)N2C1 [PP0651] | B (a compound having 3 or more and less than 10 is denoted as B) | B (a compound having 3 or more and less than 10 is denoted as B)
CCO[C@@H]1C[C@H]2C(=O)NC3(CCC3)C(=O)N(C)[C@@H](C3CCCC3)C(=O)N(CCc3ccccc3)[C@H](C(=O)N3CCOCC3)CC(=O)N(C)[C@@H](CC(C)C)C(=O)N[C@@H]([C@@H](C)CC)C(=O)N(C)CC(=O)N(C)[C@H]3CCCCN(C3=O)[C@@H](Cc3ccc(C(F)(F)F)cc3)C(=O)N(C)CC(=O)N[C@@H](CCc3cc(F)c(C(F)(F)F)c(F)c3)C(=O)N2C1 [PP0652] | B (a compound having 3 or more and less than 10 is denoted as B) | B (a compound having 3 or more and less than 10 is denoted as B)
CC[C@H](C)[C@@H]1NC(=O)[C@H](CC)N(C)C(=O)C[C@@H](C(=O)N(C)C)N(C)C(=O)[C@H](C2CCCC2)N(C)C(=O)C2(CCC2)NC(=O)[C@@H]2CCN2C(=O)[C@H](CCc2cc(F)c(C(F)(F)F)c(F)c2)NC(=O)CN(C)C(=O)[C@H](Cc2ccc(C(F)(F)F)cc2)N2CCCCC[C@@H](C2=O)N(C)C(=O)CN(C)C1=O [PP0654] | B (a compound having 3 or more and less than 10 is denoted as B) | B (a compound having 3 or more and less than 10 is denoted as B)
CC[C@H](C)[C@@H]1NC(=O)[C@H](CC)N(C)C(=O)C[C@@H](C(=O)N(C)C)N(C)C(=O)[C@H](C2CCCC2)N(C)C(=O)C2(CCC2)NC(=O)[C@@H]2CCCCN2C(=O)[C@H](CCc2cc(F)c(C(F)(F)F)c(F)c2)NC(=O)CN(C)C(=O)[C@H](Cc2ccc(C(F)(F)F)cc2)N2CCCCC[C@@H](C2=O)N(C)C(=O)CN(C)C1=O [PP0655] | B (a compound having 3 or more and less than 10 is denoted as B) | B (a compound having 3 or more and less than 10 is denoted as B)
CC[C@H](C)[C@@H]1NC(=O)[C@H](CC)N(C)C(=O)C[C@@H](C(=O)N(C)C)N(C)C(=O)[C@H](C2CCCC2)N(C)C(=O)C2(CCC2)NC(=O)[C@@H]2C[C@@H](N3CCC(F)(F)CC3)CN2C(=O)[C@H](CCc2cc(F)c(C(F)(F)F)c(F)c2)NC(=O)CN(C)C(=O)[C@H](Cc2ccc(C(F)(F)F)cc2)N2CCCC[C@@H](C2=O)N(C)C(=O)CN(C)C1=O [PP0656] | C (A compound having a KD ratio of 0.1 or more and less than 3 is denoted as C) | C (A compound having a KD ratio of 0.1 or more and less than 3 is denoted as C)
CC[C@H](C)[C@@H]1NC(=O)[C@H](CC)N(C)C(=O)C[C@@H](C(=O)N(C)C)N(C)C(=O)[C@H](C2CCCC2)N(C)C(=O)C2(CCC2)NC(=O)[C@@H]2CCN2C(=O)[C@H](CCc2cc(F)c(C(F)(F)F)c(F)c2)NC(=O)CN(C)C(=O)[C@H](Cc2ccc(C(F)(F)F)cc2)N2CCCC[C@@H](C2=O)N(C)C(=O)CN(C)C1=O [PP0657] | B (a compound having 3 or more and less than 10 is denoted as B) | B (a compound having 3 or more and less than 10 is denoted as B)
CC[C@H](C)[C@@H]1NC(=O)[C@H](CC)N(C)C(=O)C[C@@H](C(=O)N(C)C)N(C)C(=O)[C@H](C2CCCC2)N(C)C(=O)C2(CCC2)NC(=O)[C@@H]2CCCCN2C(=O)[C@H](CCc2cc(F)c(C(F)(F)F)c(F)c2)NC(=O)CN(C)C(=O)[C@H](Cc2ccc(C(F)(F)F)cc2)N2CCCC[C@@H](C2=O)N(C)C(=O)CN(C)C1=O [PP0658] | B (a compound having 3 or more and less than 10 is denoted as B) | C (A compound having a KD ratio of 0.1 or more and less than 3 is denoted as C)
CC[C@H](C)[C@@H]1NC(=O)[C@H](CC)N(C)C(=O)C[C@@H](C(=O)N(C)C)N(CC)C(=O)[C@H](C2CCCC2)N(C)C(=O)C2(CCC2)NC(=O)[C@@H]2C[C@H](N3CCC(F)(F)CC3)CN2C(=O)[C@H](CCc2cc(F)c(C(F)(F)F)c(F)c2)NC(=O)CN(C)C(=O)[C@H](Cc2ccc(C(F)(F)F)cc2)N2CCCC[C@@H](C2=O)N(C)C(=O)CN(C)C1=O [PP0659] | B (a compound having 3 or more and less than 10 is denoted as B) | B (a compound having 3 or more and less than 10 is denoted as B)
CC[C@H](C)[C@@H]1NC(=O)[C@H](CC)N(C)C(=O)C[C@@H](C(=O)N(C)C)N(CC)C(=O)[C@H](C2CCCC2)N(C)C(=O)C2(CCC2)NC(=O)[C@@H]2CCN2C(=O)[C@H](CCc2cc(F)c(C(F)(F)F)c(F)c2)NC(=O)CN(C)C(=O)[C@H](Cc2ccc(C(F)(F)F)cc2)N2CCCC[C@@H](C2=O)N(C)C(=O)CN(C)C1=O [PP0660] | B (a compound having 3 or more and less than 10 is denoted as B) | B (a compound having 3 or more and less than 10 is denoted as B)

Reference: patent US20250230193A1, “CYCLIC COMPOUND HAVING SELECTIVE KRAS INHIBITORY EFFECT ON HRAS AND NRAS” (CHUGAI SEIYAKU KABUSHIKI KAISHA, priority 2022, published 2025)
